From PMC4792161, “A novel pyrazole derivative protects from ovariectomy-induced osteoporosis through the inhibition of NADPH oxidase” (Scientific Reports, 2016)
Structures can show the parent of a compound that is named as a salt. Marks after values point to notes of the source that are not given here.

Legend:
[1] = test system: OVX-induced osteoporotic ddY mice; assay: Right femur BMD by DEXA in OVX mice; format: in vivo; conditions: oral once daily 28 days
[2] = test system: BMMs; assay: Phagocytosis assay, FITC-zymosan uptake; format: cell-based, C57BL/6 mice; conditions: pretreated 1 hour
Method: After the incubations, cells were washed three times with PBS, and the quantities of internalized fluorescent particles were determined by flow cytometry. FITC-zymosan uptake was quantified as mean fluorescence intensity (MFI).
(§1) Supplementary Figure S3. (A) Ewha-18278 compounds can not directly scavenge superoxide or other reactive species in vitro. ROS (H2O2) measured with lucigenin. Reaction mixtures contained 1 […]
(§2) Luminescence measured over 30 min at 37
(§3) °C with luminometor (Gloma X luminometor, Turner BioSystem). […]
(§4) the phagocytosis of zymosan. […]
(§5) incubated with FITC-zymosan particles, and internalized fluorescence was measured by flow cytometry. The data are presented as the MFI of internalized FITC. Data represent mean ± S.D. […]

[3] = test system: BMMs; assay: RANKL-induced signaling, immunoblot of phospho-ERK, p38, JNK, IκBα; format: cell-based, C57BL/6 mice; conditions: BMMs pretreated 1 hour
Excerpt: Data represent mean ± SD. […] Actin serves as a loading control.

[4] = test system: OVX-induced osteoporotic ddY mice; assay: Tibia histopathology-histomorphometry in OVX mice; format: in vivo
[5] = test system: BMMs; assay: RANKL-induced intracellular ROS generation (DCF fluorescence); format: cell-based, C57BL/6 mice
Excerpt: RANKL-induced ROS generation was monitored by confocal microscopic analysis of DCF fluorescence. Data represent three repeated experiments and are shown as mean ± SD (n = 3). […] (D) TRAP^+ MNCs containing more than 3 nuclei were counted. Data represent mean ± S.D., *P < 0.005. Scale bar, 500 μm.
DCF-DA is oxidized by ROS to the highly fluorescent DCF. After washed with HBSS, the cells were then examined with a laser scanning confocal microscope (LSM510; Zeiss) equipped with an argon laser tuned to an excitation wavelength of 488 nm, an LP505 emission filter (515–540 nm), and a Zeiss Axiovert objective lens. Images were digitized and stored at a resolution of 512 by 512 pixels. Five groups of cells were randomly selected from each sample, and the mean relative fluorescence intensity for each group of cells was measured with a Zeiss vision system and then averaged for all groups. All experiments were repeated at least three times.

[6] = Direct ROS (H2O2) scavenging in vitro; conditions: 20 μM compound, 1 mM H2O2
Excerpt: Based on the notion that the differentiation of OCs is mediated by Nox1/2/4-dependent ROS generation, we have performed a high throughput enzyme inhibitor screening assay to identify chemical compounds having Nox1/2/4 inhibitory activity for the development of an anti-osteoporosis agent. Purified Drosophila membranes expressing human Nox1, Nox2, or Nox4 were used to monitor ROS production by determining the oxidation of lucigenin, evident as chemiluminescence, in the absence or presence of chemical compound[18]. A chemical library containing 31,000 compounds was screened to identify Nox inhibitors. […] (Fig. 1B, Supplementary Fig. S2). […] Moreover, we investigated whether Ewha-18278 can directly scavenge ROS in vitro.
as §1, §2, §3, §4, §5

[7] = test system: OVX-induced osteoporotic ddY mice; assay: OVX-induced osteoporosis in ddY mice, overall anti-osteoporotic effect; format: in vivo
Method: Risedronate sodium (2.5 mg/kg) served as a reference compound. […] Histopathology and histomorphometrical analyses including trabecular bone volume (BV/TV), trabecular bone number (Tb.N), trabecular bone length (Tb.Le), trabecular bone thickness (Tb.Th), cortical bone thickness (Ct.Th), OC number (N.Oc), bone mineral density (BMD) and bone strength (failure load, FL) were conducted.
(§6) The study was reviewed and approved by the Institutional Animal Care and Use Committee (IACUC) of Center for Laboratory Animal Sciences, Ewha Industry-University Cooperation Foundation, Ewha Womans University. Experimental methods were carried out in accordance with the approved ethic guidelines in Ewha Industry-University Cooperation Foundation, Ewha Womans University. Beginning 4 weeks after OVX, the female ddY mice received 2.5, 5, 10, or 20 mg/kg of #18–278, 2.5 mg/kg of risedronate, or vehicle once daily for 28 days. The Changes in body weight, bone weight, bone mineral density (BMD), failure load (FL), bone calcium (Ca), inorganic phosphorus (P) contents, histology and histomorphology were monitored. Serum osteocalcin and bone specific alkaline phosphatase (bALP) were monitored in mice receiving Ewha-18278.

[8] = biological target: glucose oxidase (Aspergillus niger, UniProt P13006); assay: Glucose oxidase assay (lucigenin); format: biochemical
Method: Glucose oxidase activity was measured by lucigenin. Reaction mixtures contained 0.75 mM glucose, 0.25 mg/ml glucose oxidase, and 0.4 mM lucigenin with the indicated inhibitor (0–20μM). Luminescence was measured over 30 min at 37 °C with luminometor (DTX800, Beckman coulter).

[9] = Body weight changes in OVX mice; format: in vivo, ddY mice; conditions: risedronate 2.5 mg/kg; Ewha-18278 2.5, 5, 10 and 20 mg/kg; 28 days
Method: as §6
R esi dronat e 2. 5mg/kg t reated mi ce […]
D ay after administration (d)
Supplementary Figure S7. Body weight changes in OVX mice. We selected eight mice per group showing more increases of body weights as compared with sham-operated mice and regarded as good OVX animals at four weeks after OVX surgery, consequently, significant increases of body weights were detected in all OVX groups as compared with sham control mice throughout 28 days of […]
mice, in the present study. Values are expressed mean ± S.D. of eight mice. Risedronate sodium was administered at 2.5mg/kg levels. […]

[10] = 2.5 mg/kg oral once daily 28 days
[11] = 5 mg/kg oral once daily 28 days
[12] = 10 mg/kg oral once daily 28 days
[13] = 20 mg/kg oral once daily 28 days

Chain of glucose oxidase (P13006 17-605, species assumed): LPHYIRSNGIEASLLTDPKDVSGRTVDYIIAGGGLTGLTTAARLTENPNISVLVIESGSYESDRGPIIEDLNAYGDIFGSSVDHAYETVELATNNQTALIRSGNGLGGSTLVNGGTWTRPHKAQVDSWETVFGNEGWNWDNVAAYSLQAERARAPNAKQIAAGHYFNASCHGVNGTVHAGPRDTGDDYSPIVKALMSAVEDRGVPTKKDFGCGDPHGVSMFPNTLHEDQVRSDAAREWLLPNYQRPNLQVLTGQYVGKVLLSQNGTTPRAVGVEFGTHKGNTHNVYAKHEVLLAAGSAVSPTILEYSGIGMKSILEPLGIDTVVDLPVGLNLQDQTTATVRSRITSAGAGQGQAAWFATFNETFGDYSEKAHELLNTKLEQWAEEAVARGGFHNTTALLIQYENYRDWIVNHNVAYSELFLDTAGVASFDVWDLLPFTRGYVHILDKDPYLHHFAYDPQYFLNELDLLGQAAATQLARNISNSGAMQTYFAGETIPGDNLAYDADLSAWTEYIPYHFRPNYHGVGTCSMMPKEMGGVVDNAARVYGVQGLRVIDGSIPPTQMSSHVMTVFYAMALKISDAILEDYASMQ

## CCCc1c(-c2ccccc2)nn(-c2ccccn2)c1O [Ewha-18278, 3-phenyl-1-(pyridin-2-yl)-4-propyl-1H-5-hydroxypyrazole HCl]
[1]
  BMD of femur compared to OVX control: dramatic increased BMD
[2]
  phagocytosis of FITC-zymosan (MFI) vs DMSO: n.s.
[3]
  activation of MAPKs (JNK, p38, ERK) and phosphorylation of IκBα: suppressed activation
[4]; [10]
  BV/TV (trabecular bone volume): 19.04 ± 3.10 ^a %
  Ct.Th (cortical bone thickness): 122.04 ± 11.96 ^a μm
  N.OC/BS (osteoclast cell number, N/epiphyseal): 14.13 ± 3.44 ^a numbers
  Tb.N (trabecular bone number, N/epiphyseal): 8.63 ± 1.60 ^a numbers
  Tb.Th (trabecular bone thickness): 34.89 ± 5.16 ^a μm
[4]; [11]
  BV/TV (trabecular bone volume): 29.39 ± 2.41 ^bc %
  Ct.Th (cortical bone thickness): 137.51 ± 10.96 ^ac μm
  Tb.N (trabecular bone number, N/epiphyseal): 12.50 ± 1.31 ^ac numbers
  Tb.Th (trabecular bone thickness): 48.34 ± 6.87 ^ac μm
[4]; [12]
  BV/TV (trabecular bone volume): 33.36 ± 4.35 ^c %
  Ct.Th (cortical bone thickness): 182.11 ± 12.48 ^c μm
  N.OC/BS (osteoclast cell number, N/epiphyseal): 8.13 ± 2.23 ^ac numbers
  Tb.N (trabecular bone number, N/epiphyseal): 15.00 ± 2.00 ^ac numbers
  Tb.Th (trabecular bone thickness): 53.36 ± 5.94 ^ac μm
[4]; [13]
  BV/TV (trabecular bone volume): 33.78 ± 3.47 ^c %
  Ct.Th (cortical bone thickness): 194.28 ± 15.50 ^c μm
  N.OC/BS (osteoclast cell number, N/epiphyseal): 6.88 ± 2.36 ^ac numbers
  Tb.N (trabecular bone number, N/epiphyseal): 17.13 ± 1.81 ^c numbers
  Tb.Th (trabecular bone thickness): 55.98 ± 7.15 ^ac μm
[5]; RANKL 200 ng/ml 10 minutes
  RANKL-mediated ROS generation: reduced RANKL-mediated ROS generation in dose- and time-dependent manners
[5]; after 60 min
  concentration at plateau of inhibition of RANKL-dependent ROS generation: 10 µM
[6]
  change in hydrogen peroxide concentration (ROS scavenging): had no effect
[7]; 2.5 mg/kg
  anti-osteoporotic effects: did not produce obvious favorable anti-osteoporotic effects
[7]; 10 mg/kg/day for 28 days
  anti-osteoporotic effects compared to risedronate (2.5 mg/kg/day for 28 days): similar
[7]; OVX mice
  cortical bone thickness compared to risedronate: significantly increased cortical bone thickness
[7]; compared to control mice
  number of OCs in the tibia and femur: decreased number of OCs
[7]; oral once daily 28 days, OVX mice
  optimal effective dosage: 10 mg/kg
[8]
  inhibitory activity on glucose oxidase: no inhibitory activities
[9]
  body weights as compared with OVX control mice: no meaningful changes
